# Laboratory results taken from PubChem BioAssay (NCI).
# Values joined by “and” are separate entries in the source; they are usually repeats but may differ in a detail not shown here. Equal entries are not always repeated.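 Results reflect a 48-hour exposure of cells in 96-well plates to compound at five concentrations. Abbreviation: GI50, concentration required for 50% inhibition of growth. At the TGI there is no net growth.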
# System: HCT-116 colon
# Assay: DTP human tumour cell line panel, 48 h
SMILES,TGI,GI50
COC(=O)c1c/c(=N\NC(=O)CC(=O)Nc2ccccc2OC)c2ccccc2o1,> 100 µM,
NC(CCC(=O)NC(CSSCCCCS(=O)O)C(=O)NCC(=O)O)C(=O)O (centres undefined),> 100 µM,
C[C@@H]1OC(O)[C@@H](F)[C@H](O)[C@@H]1O (some centres undefined),> 100 µM,> 100 µM
COC12C=C(C)C(CC1)CC2C(=O)O (centres undefined),> 100 µM,
OCC(O)CC[CH2][Sn]([Br])([c]1ccccc1)[c]1ccccc1 (centres undefined),> 100 µM,> 100 µM
CCc1ccc(/C=C\c2cc(OC)c(OC)c(OC)c2)cc1,0.464 µM and 1.18 µM,0.0187 µM
O=c1c2cc([N+](=O)[O-])ccc2sc2ccsc12,> 100 µM,
C=CCCCCCCCCC(=O)[O][Sn]([CH2]CCC)([CH2]CCC)[CH2]CCC,0.262 µM,0.133 µM
COc1ccc(C2=CC3CCC2C3)cc1 (centres undefined),> 100 µM,
COc1ccc(/C=C/CN(C)CCc2ccccc2)cc1OC,> 100 µM,
[Cl-].[Dy+3].[O-]/N=C(\c1ccccc1)c1ccccn1.[O-]/N=C(\c1ccccc1)c1ccccn1.[O-]/N=C(\c1ccccc1)c1ccccn1,> 100 µM,49.8 µM
CC(C)(CC(=O)Nc1ccccc1)C(=O)O,> 100 µM,
NC(=O)C(=O)N/N=C(\CC1(O)C(=O)Nc2ccccc21)c1ccc2ccccc2c1 (centres undefined),21.2 µM,
Cc1cc2c(cc1C)[n+](=O)c(C(=O)C/C(=N/NC(=O)CC#N)C(=O)Nc1ccccc1C(F)(F)F)c(C)n2[O-],> 100 µM,
COc1cc([N+](=O)[O-])cc2c3c(n(C)c12)[C@@]1(C)CCC2c4ccc(OCc5ccccc5)cc4CCC2C1C3 (some centres undefined),> 100 µM,78.5 µM
COC(=O)/C(=N/NC(=O)C[N+](C)(C)C)C(C(=O)OC)C(=O)C(=O)Nc1ccc(F)cc1 (centres undefined),> 100 µM,
O=C(c1ccccc1)c1nnc(C(=O)c2ccccc2)nn1,> 344 µM,
Brc1cccc(C=NC23CC4CC(CC(C4)C2)C3)c1,> 100 µM,
Nc1nc(Cl)c2ncn(Cc3ccc(C45CC6CC(CC(C6)C4)C5)c(O)c3)c2n1,3.15 µM,1.1 µM
CCC(C)c1c(Cl)nc(Cl)nc1Cl (centres undefined),17.9 µM,

SMILES,TGI,GI50
CCC[CH2][Sn]([CH2]CCC)([O]C(=O)c1cccnc1SC)[O]C(=O)c1cccnc1SC,2.32 µM,1.12 µM
COc1cc(C2NC(=O)c3ccccc3N2)ccc1OCCCCCOc1c(OC)cc(C2=NOC(c3cc(OC)c(OC)c(OC)c3)C2)cc1OC (centres undefined),32.4 µM,0.433 µM
O=C1O[C@@H](c2ccc3c(c2)OCO3)C2C(=O)O[C@@H](c3ccc4c(c3)OCO4)C12 (some centres undefined),> 100 µM,
O=C1CCC(=O)N2CCCCN12,> 100 µM,
CC(C)C(=O)NC(=S)Nc1ccc([N+](=O)[O-])cc1C#N,> 100 µM,
C/C(CC(=O)Nc1cc(Cl)c(Cl)cc1Cl)=N\NC(N)=O,> 100 µM,
N#Cc1cc([N+](=O)[O-])ccc1NC(=O)C(=O)Nc1n[nH]c(N)n1,> 100 µM,
CS(=O)(=O)c1ccc([C@H]2O[C@@H](CO)C[C@]2(O)c2ccc(S(C)(=O)=O)cc2)cc1,> 100 µM,> 100 µM
O=C(/C=C/c1c(O)ccc2ccccc12)c1cccc(O)c1,> 100 µM,
CC1=NN(C(=O)Nc2ccccc2)C(=O)C2CCC(=O)N12 (centres undefined),> 100 µM,
COC(=O)C1Cc2c(n(Cc3ccccc3)c3ccccc23)C(CCC(=O)O)N1C(C)C (centres undefined),> 100 µM,
O=C(O)CNS(=O)(=O)c1ccc(NCc2ccccc2)cc1,> 100 µM,
O=C1c2cc(Cl)ccc2S(=O)(=O)c2c(NCCCNCCO)nc3ccccc3c21,3.26 µM,1.49 µM
CC(C)(C)C1C=C(Sc2ccccc2)C(=O)O1 (centres undefined),> 100 µM,
CCC[CH2][Sn]1([CH2]CCC)[O]Cc2nc(C)ccc2[O]1,24.5 µM,12.1 µM
Cc1ccc2c(c1)[n+]([O-])c(N)n[n+]2[O-],> 100 µM,
O=c1/c(=C/c2ccco2)sc2nc3ccccc3n12,> 100 µM,> 100 µM
O=C1CCC2(c3ccc(F)cc3)Nc3cc(Cl)ccc3N12 (centres undefined),> 100 µM,
C/C(CC(=O)Nc1ccc(C)cc1C)=N/N=C(N)N,> 100 µM,

# System: HOP-62 NSCLC
# Assay: DTP human tumour cell line panel, 48 h
row,SMILES,TGI
1,COC(=O)c1c/c(=N\NC(=O)CC(=O)Nc2ccccc2OC)c2ccccc2o1,> 100 µM
2,NC(CCC(=O)NC(CSSCCCCS(=O)O)C(=O)NCC(=O)O)C(=O)O (centres undefined),> 100 µM
